The values below come from patent US12421254B2, “KRAS modulators and uses thereof” (Quanta Therapeutics, Inc., priority 2023, dated 2025).

Where only a bound is given, the exact number is not on record here.

By IC50 is commonly meant the midpoint of a concentration-inhibition curve.

In experiment [1] the test system is phospho-ERK in SW620 (KRAS-G12V) cells. Nature of the experiment: pERK In Cell Western (ICW) assay (Method B), SW620. The format is cell-based. As to conditions: Homo sapiens, SW-620, 3 h, Table 4. The method, then:
pERK ICW is a high throughput screening assay to evaluate the cellular potency of mutant KRAS small molecule inhibitors. KRAS mutant cell lines AGS, GP2D (KRAS-G12D) as well as SW620 (KRAS-G12V) were purchased from ATCC and maintained respectively in RPMI/DMEM/RPMI medium supplemented with 10% fetal bovine serum.
Cells grown in exponential phase were trypsinized, resuspended in fresh media, and viable cells were counted using a cell counter with Trypan Blue (BioRad TC20). Cells were seeded into 384-well plate (Greiner 781091) at density of 5,000 cells/well for AGS and 10,000 cells/well for GP2D/SW620 and allowed to grow overnight in a 37° C. CO2 incubator. The next day, compounds were dispensed into wells with a ½ log, 9-point serial dilution using a Tecan D300e dispenser and incubated for 3 hours in a 37° C. CO2 incubator. Cells were then fixed with paraformaldehyde (Electron Microscopy Sciences, 15710, 4% final concentration) for 30 min, permeabilized with wash buffer (1×PBS+0.1% Triton X-100) for 30 min and blocked with Odyssey blocking buffer (Li—COR 927-70001) for 1 hour, all at room temperature (RT). Phospho-ERK antibody (CST 4370L) was diluted 1:500 in Odyssey T20 (PBS) antibody diluent (Li—COR 927-75001) and incubated with cells overnight at 4° C. The next day, plates were washed 5× with wash buffer, incubated with IRDye 800 CW, Goat anti-Rabbit secondary antibody (Li—COR 926-32211, 1:800) and DRAQ5 (CST 4084L, 1:5,000) diluted in Odyssey T20 (PBS) antibody diluent for 1 hour, washed 5×, and imaged on an Odyssey CLx imaging system.
For data analysis, signal intensities from 800 (phosphor-ERK) and 700 (DRAQ5) channels were extracted, and phospho-ERK signals were normalized to DRAQ5 signals for each well and percent of blank control values were computed. Data were then imported into Graphpad Prism to compute half-maximal inhibitory concentrations (IC50) using a 4-parameter variable slope model. Z-factor for each plate was computed from signals derived from wells treated with either DMSO or 5 μM of control compound. AGS pERK ICW (Method B) IC50 (uM) values of selected compounds are depicted in Table 2 with compounds having a value ≥0.001 uM to 0.01 uM as ++++; ≥0.01 uM to 0.1 uM as +++; ≥0.1 uM to 1 uM as ++; ≥1 uM to 10 uM as + and ≥10 uM as NA.

For experiment [2], the target named is GST-tagged KRAS-G12D (2-169) (Homo sapiens, UniProt P01116, G12D). Nature of the experiment: Nucleotide exchange assay (NEA), SOS-mediated, HTRF, KRAS G12D. As to conditions: Table 4; IC50 extracted at 30 min; 20 nM SOScat; read-out: NEA G12D IC50. The class given is biochemical. The gist of the method: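 SOS1cat-driven loading of fluorescent GTP-DY-647P1 (150 nM) onto GST-KRAS-G12D (2-169, 0.25 nM) read by time-resolved FRET; SOScat 20 nM, compound preincubated with KRAS 1 h at RT. Signal blanked to no-SOS reactions, normalized to DMSO; IC50 fitted from the 30-min read.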
A general note: TR-FRET usually uses a lanthanide donor and a delayed reading to cut background.

For experiment [3], the target named is GST-tagged KRAS-G12V (2-169) (Homo sapiens, UniProt P01116, G12V). Nature of the experiment: Nucleotide exchange assay (NEA), SOS-mediated, HTRF, KRAS G12V. The format is biochemical. As to conditions: Table 4; IC50 extracted at 90 min; 80 nM SOS. The gist of the method:
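Exchange onto fluorescent GTP-DY-647P1 (150 nM final) catalysed by 80 nM SOS1cat was followed by Tb-anti-GST HTRF at RT for up to 90 min, after 1 h compound pre-incubation with 0.25 nM GST-tagged KRAS-G12V (2-169), pH 7.3. DMSO = 0%, no-SOS blank = 100%; 4-parameter IC50 taken at 90 min.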

GST-tagged KRAS-G12V (2-169), sequence (P01116 2-169 isoform P01116-2 G12V): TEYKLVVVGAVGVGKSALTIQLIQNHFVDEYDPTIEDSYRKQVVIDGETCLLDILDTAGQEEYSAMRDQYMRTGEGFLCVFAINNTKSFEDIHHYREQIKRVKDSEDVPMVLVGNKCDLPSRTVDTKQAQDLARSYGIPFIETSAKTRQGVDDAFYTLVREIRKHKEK
GST-tagged KRAS-G12D (2-169), sequence (P01116 2-169 isoform P01116-2 G12D): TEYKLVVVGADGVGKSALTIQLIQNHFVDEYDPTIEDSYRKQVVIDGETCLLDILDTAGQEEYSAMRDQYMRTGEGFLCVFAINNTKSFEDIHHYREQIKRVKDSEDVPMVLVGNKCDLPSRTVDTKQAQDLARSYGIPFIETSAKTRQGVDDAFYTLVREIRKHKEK

For `N#Cc1c(N)sc2c1C1(CN(c3nc(OC[C@@]45CCCN4C[C@H](F)C5)nc(N(CC(=O)O)C4(C#N)CC4)n3)C1)SC2` [Compound 259, 2-[[4-(2-amino-3-cyano-spiro[6H-thieno[3,4-b]thiophene-4,3′-azetidine]-1′-yl)-6-[[(2R,8S)-2-fluoro-1,2,3,5,6,7-hexahydropyrrolizin-8-yl]methoxy]-1,3,5-triazin-2-yl]-(1-cyanocyclopropyl)amino]acetic acid], the IC50 in experiment [1] fell in the range of 1000 to 20000 nM.

Consider `N#Cc1c(N)sc2c1C1(CN(c3nc(OC[C@@]45CCCN4C[C@H](F)C5)nc(N4C5CNC(=O)C4C5)n3)C1)SC2` (stereo partly drawn) [Compound 267, 2-amino-1′-[4-[[(2R,8S)-2-fluoro-1,2,3,5,6,7-hexahydropyrrolizin-8-yl]methoxy]-6-(2-oxo-3,6-diazabicyclo[3.1.1]heptan-6-yl)-1,3,5-triazin-2-yl]spiro[6H-thieno[3,4-b]thiophene-4,3′-azetidine]-3-carbonitrile], for which the values for the IC50 in experiment [2] and in experiment [3] were 10 to 100 nM and < 10 nM, respectively.

For the compound `CC1(O)COCCN(c2nc(OC[C@@]34CCCN3C[C@H](F)C4)nc(N3CC4(C3)SCc3sc(N)c(C#N)c34)n2)C1` (stereo partly drawn) [Compound 268, 2-amino-1′-[4-[[(2R,8S)-2-fluoro-1,2,3,5,6,7-hexahydropyrrolizin-8-yl]methoxy]-6-(6-hydroxy-6-methyl-1,4-oxazepan-4-yl)-1,3,5-triazin-2-yl]spiro[6H-thieno[3,4-b]thiophene-4,3′-azetidine]-3-carbonitrile], the IC50 in experiment [2] and in experiment [3] was < 10 nM throughout.

For `N#Cc1c(N)sc2c1C1(CN(c3nc(OC[C@@]45CCCN4C[C@H](F)C5)nc(N4C5CSCC4C5)n3)C1)SC2` [Compound 269, 2-amino-1′-[4-[[(2R,8S)-2-fluoro-1,2,3,5,6,7-hexahydropyrrolizin-8-yl]methoxy]-6-(3-thia-6-azabicyclo[3.1.1]heptan-6-yl)-1,3,5-triazin-2-yl]spiro[6H-thieno[3,4-b]thiophene-4,3′-azetidine]-3-carbonitrile], the IC50 was in the range of 100 to 1000 nM in experiment [2] and 10 to 100 nM in experiment [3].

On to `CC1(O)COCCN(c2nc(OCC3(CN4CCOCC4)CC3)nc(N3CC4(C3)SCc3sc(N)c(C#N)c34)n2)C1` (stereo not drawn) [Compound 270, 2-amino-1′-[4-(6-hydroxy-6-methyl-1,4-oxazepan-4-yl)-6-[[1-(morpholinomethyl)cyclopropyl]methoxy]-1,3,5-triazin-2-yl]spiro[6H-thieno[3,4-b]thiophene-4,3′-azetidine]-3-carbonitrile], for which the IC50 in experiment [2] and in experiment [3] was < 10 nM in each case.

In the case of `N#Cc1c(N)sc2c1C1(CN(c3nc(OC[C@@]45CCCN4C[C@H](F)C5)nc(N4C5CCC4CC(=O)NC5)n3)C1)SC2` (stereo partly drawn) [Compound 271, 2-amino-1′-[4-[[(2R,8S)-2-fluoro-1,2,3,5,6,7-hexahydropyrrolizin-8-yl]methoxy]-6-(4-oxo-3,9-diazabicyclo[4.2.1]nonan-9-yl)-1,3,5-triazin-2-yl]spiro[6H-thieno[3,4-b]thiophene-4,3′-azetidine]-3-carbonitrile], the results for the IC50 in experiment [2] and in experiment [3] were 1000 to 20000 nM and 100 to 1000 nM, respectively.

Turning to `N#Cc1c(N)sc2c1C1(CN(c3nc(OC[C@@]45CCCN4C[C@H](F)C5)nc(N(CCN)C4(C#N)CC4)n3)C1)SC2` [Compound 272, 2-amino-1′-[4-[2-aminoethyl-(1-cyanocyclopropyl)amino]-6-[[(2R,8S)-2-fluoro-1,2,3,5,6,7-hexahydropyrrolizin-8-yl]methoxy]-1,3,5-triazin-2-yl]spiro[6H-thieno[3,4-b]thiophene-4,3′-azetidine]-3-carbonitrile; formic acid], the IC50 is < 10 nM in experiment [2] and 10 to 100 nM in experiment [3].

With `N#Cc1c(N)sc2c1C1(CN(c3nc(OC[C@@]45CCCN4C[C@H](F)C5)nc(N4C5CCC4CC(=O)C5)n3)C1)SC2` [Compound 273, 2-amino-1′-[4-[[(2R,8S)-2-fluoro-1,2,3,5,6,7-hexahydropyrrolizin-8-yl]methoxy]-6-(3-oxo-8-azabicyclo[3.2.1]octan-8-yl)-1,3,5-triazin-2-yl]spiro[6H-thieno[3,4-b]thiophene-4,3′-azetidine]-3-carbonitrile], the IC50 in experiment [2] was 100 to 1000 nM; in experiment [3], 10 to 100 nM.

As to `N#Cc1c(N)sc2c1C1(CN(c3nc(OC[C@@]45CCCN4C[C@H](F)C5)nc(N4[C@@H]5CC[C@H]4C[C@H](O)C5)n3)C1)SC2` [Compound 275, 2-amino-1′-[4-[[(2R,8S)-2-fluoro-1,2,3,5,6,7-hexahydropyrrolizin-8-yl]methoxy]-6-[(1S,5R)-3-hydroxy-8-azabicyclo[3.2.1]octan-8-yl]-1,3,5-triazin-2-yl]spiro[6H-thieno[3,4-b]thiophene-4,3′-azetidine]-3-carbonitrile], the IC50 in experiment [2] and in experiment [3] was 100 to 1000 nM in each case.

Turning to `N#Cc1c(N)sc2c1C1(CN(c3nc(OC[C@@]45CCCN4C[C@H](F)C5)nc(N4C5CNCC4CC(=O)C5)n3)C1)SC2` [Compound 276, 2-amino-1′-[4-[[(2R,8S)-2-fluoro-1,2,3,5,6,7-hexahydropyrrolizin-8-yl]methoxy]-6-(7-oxo-3,9-diazabicyclo[3.3.1]nonan-9-yl)-1,3,5-triazin-2-yl]spiro[6H-thieno[3,4-b]thiophene-4,3′-azetidine]-3-carbonitrile], the concentration for half-maximal inhibition (IC50) in experiment [2] lay in the range of 100 to 1000 nM; in experiment [3], 10 to 100 nM.

Take `N#Cc1c(N)sc2c1C1(CN(c3nc(OC[C@@]45CCCN4C[C@H](F)C5)nc(N4CC5CC(=O)CC(C4)N5)n3)C1)SC2` [Compound 277, 2-amino-1′-[4-[[(2R,8S)-2-fluoro-1,2,3,5,6,7-hexahydropyrrolizin-8-yl]methoxy]-6-(7-oxo-3,9-diazabicyclo[3.3.1]nonan-3-yl)-1,3,5-triazin-2-yl]spiro[6H-thieno[3,4-b]thiophene-4,3′-azetidine]-3-carbonitrile]: the figures for the IC50 in experiment [2] and in experiment [3] were 10 to 100 nM and < 10 nM, respectively.

Turning to `C[C@H](c1cccnc1N)N(C)c1nc(OC[C@@]23CCCN2C[C@H](F)C3)nc(N2CC3(CCc4cnn(C)c43)C2)n1` [Compound 278, N-[(1R)-1-(2-amino-3-pyridyl)ethyl]-4-[[(2R,8S)-2-fluoro-1,2,3,5,6,7-hexahydropyrrolizin-8-yl]methoxy]-N-methyl-6-(1-methylspiro[4,5-dihydrocyclopenta[d]pyrazole-6,3′-azetidine]-1′-yl)-1,3,5-triazin-2-amine], the IC50 in experiment [2] and in experiment [3] was 1000 to 20000 nM throughout.

As to `CN(C)CC1(COc2nc(N3CCOCC(C)(O)C3)nc(N3CC4(C3)SCc3sc(N)c(C#N)c34)n2)CC1(F)F` (stereo not drawn) [Compound 281, 2-amino-1′-[4-[[1-[(dimethylamino)methyl]-2,2-difluoro-cyclopropyl]methoxy]-6-(6-hydroxy-6-methyl-1,4-oxazepan-4-yl)-1,3,5-triazin-2-yl]spiro[6H-thieno[3,4-b]thiophene-4,3′-azetidine]-3-carbonitrile], the IC50 in experiment [2] and in experiment [3] was < 10 nM each time.

On to `N#Cc1c(N)sc2c1C1(CN(c3nc(OC[C@@]45CCCN4C[C@H](F)C5)nc(N4CCC5(CC4)COC5=O)n3)C1)SC2` [Compound 283, 2-amino-1′-[4-[[(2R,8S)-2-fluoro-1,2,3,5,6,7-hexahydropyrrolizin-8-yl]methoxy]-6-(3-oxo-2-oxa-7-azaspiro[3.5]nonan-7-yl)-1,3,5-triazin-2-yl]spiro[6H-thieno[3,4-b]thiophene-4,3′-azetidine]-3-carbonitrile], for which the half-maximal inhibitory concentration (IC50) in experiment [2] and in experiment [3] was 100 to 1000 nM each time.
